Data taken from ChEMBL document CHEMBL4825774, “Sulfonylamide Compounds as CDK2 Inhibitors for Treating Cancer” (ACS Med Chem Lett, 2021).

Target: Cyclin-dependent kinase 2/cyclin E1 (Homo sapiens, UniProt P24941)
Assay: Inhibition of human GST-tagged CDK2/FLAG-Cyclin E1 (unknown origin) expressed in baculovirus expression system incubated for 60 mins by HTRF enzyme activity assay

IC50, ≤ 50 nM:
CNS(=O)(=O)c1ccc(Nc2ncc3c(n2)N([C@@H]2CCC[C@H]2C)C(=O)C32CC2)cc1, CC[C@@H](N1C(=O)C2(CC2)c2cnc(Nc3ccc(S(=O)(=O)NC)cc3)nc21)C(F)(F)F, CC1(NS(=O)(=O)c2ccc(Nc3ncc4c(n3)N([C@@H]3CCC[C@]3(C)O)C(=O)C43CC3)cc2)CNC1, CC1CCCC1N1C(=O)C2(CC2)c2cnc(Nc3ccc(S(=O)(=O)N[C@@H]4CCCN(C)C4)cc3)nc21 (stereo partly specified), CN(C)CCNS(=O)(=O)c1ccc(Nc2ncc3c(n2)N(c2cc(F)ccc2Cl)C(=O)C32CC2)cc1, CNS(=O)(=O)c1ccc(Nc2ncc3c(n2)N(c2cc4c(cc2Cl)CNCC4)C(=O)C32CC2)cc1
